In the NIST ThermoML archive (doi:10.1021/je7000683):
Numbers after ± are expanded uncertainties.

How the values were obtained:
[1] = for vapor or sublimation pressure: Liquid, Calculated from knudsen effusion weight loss
[2] = molar heat capacity at constant pressure; conditions: 101.33 kPa, Small (less than 1 g) adiabatic calorimetry
[3] = Molar enthalpy of transition or fusion; conditions: Crystal; Adiabatic calorimetry
[4] = activity coefficient (dimensionless); of the first substance listed, at infinite dilution; xn = mol fraction of the nth substance listed; conditions: Liquid, Chromatography, x1 = 0

## O=C1CCCCCN1 [1-aza-2-cycloheptanone]
[1]; 315.3 K
  vapor or sublimation pressure: 0.00286 ± 0.00035 kPa
[1]; 320.3 K
  vapor or sublimation pressure: 0.00442 ± 0.00058 kPa
[1]; 331.9 K
  vapor or sublimation pressure: 0.01144 ± 0.0018 kPa
[1]; Crystal, Adiabatic calorimetry
  Triple point temperature: 342.22 ± 0.04 K
[2]; 316 K, Crystal
  molar heat capacity at constant pressure: 168 ± 1.5 J/K/mol
[2]; 319 K, Crystal
  molar heat capacity at constant pressure: 169.4 ± 1.5 J/K/mol
[2]; 322 K, Crystal
  molar heat capacity at constant pressure: 171.1 ± 1.5 J/K/mol
[2]; 323 K, Liquid
  molar heat capacity at constant pressure: 232.3 ± 2 J/K/mol
[2]; 325 K, Crystal
  molar heat capacity at constant pressure: 173 ± 1.5 J/K/mol
[2]; 326 K, Liquid
  molar heat capacity at constant pressure: 233.8 ± 2 J/K/mol
[2]; 328 K, Crystal
  molar heat capacity at constant pressure: 175.1 ± 1.5 J/K/mol
[2]; 329 K, Liquid
  molar heat capacity at constant pressure: 235.3 ± 2 J/K/mol
[2]; 331 K, Crystal
  molar heat capacity at constant pressure: 177.5 ± 1.6 J/K/mol
[2]; 332 K, Liquid
  molar heat capacity at constant pressure: 236.7 ± 2.1 J/K/mol
[2]; 334 K, Crystal
  molar heat capacity at constant pressure: 180.1 ± 1.6 J/K/mol
[2]; 335 K, Crystal
  molar heat capacity at constant pressure: 181 ± 1.6 J/K/mol
[2]; 335 K, Liquid
  molar heat capacity at constant pressure: 238.2 ± 2.1 J/K/mol
[2]; 338 K, Liquid
  molar heat capacity at constant pressure: 239.7 ± 2.1 J/K/mol
[2]; 341 K, Liquid
  molar heat capacity at constant pressure: 241.2 ± 2.1 J/K/mol
[2]; 344 K, Liquid
  molar heat capacity at constant pressure: 242.7 ± 2.1 J/K/mol
[2]; 347 K, Liquid
  molar heat capacity at constant pressure: 244.2 ± 2.1 J/K/mol
[2]; 350 K, Liquid
  molar heat capacity at constant pressure: 245.7 ± 2.1 J/K/mol
[2]; 353 K, Liquid
  molar heat capacity at constant pressure: 247.1 ± 2.1 J/K/mol
[2]; 356 K, Liquid
  molar heat capacity at constant pressure: 248.6 ± 2.2 J/K/mol
[2]; 359 K, Liquid
  molar heat capacity at constant pressure: 250.1 ± 2.2 J/K/mol
[2]; 362 K, Liquid
  molar heat capacity at constant pressure: 251.6 ± 2.2 J/K/mol
[2]; 365 K, Liquid
  molar heat capacity at constant pressure: 253.1 ± 2.2 J/K/mol
[2]; 368 K, Liquid
  molar heat capacity at constant pressure: 254.6 ± 2.2 J/K/mol
[3]
  Molar enthalpy of transition or fusion: 3.862 ± 0.00956 kcal/mol

## CCCCCC[n+]1ccn(C)c1.O=S(=O)([N-]S(=O)(=O)C(F)(F)F)C(F)(F)F
[1]; Crystal, visual observation
  Normal melting temperature: -1 ± 0.4 °C

## ON=C1CCCCC1 [cyclohexanone oxime] + CCCCCC[n+]1ccn(C)c1.O=S(=O)([N-]S(=O)(=O)C(F)(F)F)C(F)(F)F
[4]; 375.4 K
  activity coefficient: 2.41 ± 0.16
[4]; 386 K
  activity coefficient: 2.22 ± 0.15
[4]; 396.5 K
  activity coefficient: 2.03 ± 0.14
[4]; 407 K
  activity coefficient: 1.84 ± 0.12
[4]; 417.1 K
  activity coefficient: 1.67 ± 0.11
[4]; 417.6 K
  activity coefficient: 1.61 ± 0.11
[4]; 427.5 K
  activity coefficient: 1.51 ± 0.1
[4]; 438 K
  activity coefficient: 1.28 ± 0.08

## O=C1CCCCCN1 [1-aza-2-cycloheptanone] + CCCCCC[n+]1ccn(C)c1.O=S(=O)([N-]S(=O)(=O)C(F)(F)F)C(F)(F)F
[4]; 427.5 K
  activity coefficient: 0.49 ± 0.04
